Patent publication US20080311589A1, “METHOD OF HIGH-THROUGHPUT SCREENING OF MOLECULES AND COMPOUNDS FOR THEIR EFFECTS ON BIOLOGICAL AND CHEMICAL PROCESSES” (priority 1999, published 2008)
Entries after “also recorded” stand apart in the source; their conditions may differ. Peptide text beside a SMILES is read from it.

How the values were obtained:
[1] = test system: A549 human lung carcinoma cells; experiment: phosphonucleolin cytoblot, suppressors of G2-arresting agents; format: cell-based; conditions: for prevention of nocodazole mitotic arrest: simultaneous addition with 250 nM nocodazole, 14 μM ICRF-193, 20 μM roscovitine
Procedure: (§1) FIG. 11. Cytoblots can be used to screen for small molecule suppressors of anti-proliferative agents using the presence of phosphonucleolin, and for small molecules that induce exit from mitosis using the absence of phosphonucleolin. […] A549 human lung carcinoma cells were seeded at a density of 4000 cells in 40 μL of DMEM+ in each well of an opaque 384-well plate and incubated for 24 hours at 37° C. with 5% CO2. […] Cells were then incubated for 18 hours at 37° C. with 5% CO2 and a phosphonucleolin cytoblot was performed. (c) HeLaS3 cells were seeded at a density of 4000 cells in 40 μL of DMEM+ in each well of an opaque 384-well plate and incubated for 24 hours at 37° C. with 5% CO2. Cells were either left untreated or treated with 554 nM nocodazole for 14 hours to arrest cells in mitosis. Roscovitine was then added to the final concentrations indicated in a final volume of 50 μL and cells were incubated for 4 hours at 37° C. with 5% CO2. Finally, BrdU was added to a final concentration of 10 μM to those wells that were assayed for BrdU incorporation, and the cells incubated for an additional 6 hours at 37° C. with 5% CO2. BrdU and phosphonucleolin cytoblots were performed. […] HeLa cells were seeded at a density of 4000 cells per well in 40 μL of DMEM+ in each well of an opaque 384 well plate and incubated overnight at 37° C. with 5% CO2. Cells were then treated with either an equivalent amount of DMSO or nocodazole to a final concentration of 415 nM and the cells incubated for an additional 14 hours at 37° C. with 5% CO2. Roscovitine was then added to the final concentrations indicated and final volume of 50 μL and cells incubated for 4 hours 37° C. with 5% CO2. Finally, BrdU was added to a final concentration of 10 μM to those wells the be assayed for BrdU incorporation and the cells incubated for an additional 6 hours at 37° C. with 5% CO2. BrdU and TG-3 cytoblots were performed (see Protocols). Wells are shown magnified 4×. […] A549 human lung carcinoma cells were seeded at a density of 4000 cells in 40 uL of DMEM+ in each well of an opaque 384 well plate and incubated for 24 hours at 37° C. with 5% CO2. […] Cells were then incubated for 18 hours at 37° C. with 5% CO2 and a TG-3 cytoblot performed (see Protocol).
These purine analogs are known to be non-specific competitive inhibitors of 5′-adenosine triphosphate binding and therefore are likely to inhibit a wide range of kinases in the cell.

[2] = test system: Mv1Lu mink lung epithelial cells; experiment: 384 well anti-BrdU cytoblot; format: cell-based; conditions: 384-well plate; antiproliferative agents 24 hours, then 10 μM BrdU 16 hours (FIG. 2)
Text: FIG. 1. An immunodetection assay for DNA synthesis in high density arrays of mammalian cells. (a) Cartoon depiction of an anti-BrdU cytoblot. The thymine analog 5-bromodeoxyuridine (BrdU) is incorporated into the DNA of cells that are actively replicating their DNA. The cells are in the well, and BrdU is detected with a two step antibody binding procedure. The second antibody is conjugated to the enzyme horseradish peroxidase. In the presence of the chemiluminescent substrate luminol as well as hydrogen peroxide, light of wavelength 428 nm is generated. The light emission can be detected by exposing the plate to film. (b) A cytoblot can detect TGF-β's ability to prevent BrdU incorporation in mink lung epithelial cells. 2000 Mv1Lu mink lung epithelial cells were seeded in each well of a white, opaque 384 well plate. The cells were seeded in the indicated concentrations of TGF-β in 50 μL of DMEM with 1% fetal bovine serum (FBS), 100 units/mL penicillin G sodium, 100 μg/mL streptomycin sulfate and 100 μM each of the amino acids alanine, aspartic acid, glutamine, glycine, asparagine and proline (referred to throughout as 1% mink medium) and allowed to incubate at 37° C. with 5% CO2. After 16 hours, 5.5 μL of 100 μM BrdU in 1% mink medium was added to each well, for a final concentration of 10 μM BrdU. The cells were incubated at 37° C. with 5% CO2 for an additional 16 hours and then an anti-BrdU cytoblot protocol was performed (see protocol). Wells shown are magnified 4×.
FIG. 2. A cytoblot can detect the ability of numerous antiproliferative agents to inhibit BrdU incorporation. 2000 Mv1Lu mink lung epithelial cells were seeded in each well of a white, opaque 384 well plate. The cells were seeded in 40 μL of 1% mink media and immediately 40 μL of 2× stocks of the reagents shown was added to each well and the cells were allowed to incubate at 37° C. with 5% CO2. After 24 hours, 9 μL of 100 μM BrdU in 1% mink medium was added to each well, for a final concentration of 10 μM BrdU. The cells were incubated at 37° C. with 5% CO2 for an additional 16 hours and then an anti-BrdU cytoblot protocol was performed (see protocol). Wells shown are magnified 2.5×.
The ability of the cytoblot assay to detect changes in DNA synthesis was tested by measuring the incorporation of 5-bromodeoxyuridine (BrdU, Sigma Corporation, St. Louis, Mo., Cat.# B9285) into DNA in the presence or absence of the anti-mitogen transforming growth factor β (TGF-β). Mink lung cells, which are responsive to TGF-β, were seeded into each well of an opaque, white 384-well plate. The cells were subsequently treated with varying concentrations of TGF-β for 16 hours and then with 10 μM BrdU for 16 hours. […] The following protocols provide experimental detail. […]

[3] = test system: HeLaS3 cells; experiment: BrdU and phosphonucleolin cytoblots in nocodazole-arrested HeLa cells; format: cell-based, human
Procedure: as §1
It should also be possible to find small molecules that induce exit from mitosis, resulting in a reduction in phosphonucleolin levels. As the nocodazole-induced arrest of cells in mitosis requires cyclin-dependent kinase (CDK) activity for the activation of the spindle assembly checkpoint, inhibition of CDK activity should suppress nocodazole-induced mitotic arrest (FIG. 11a). […]

[4] = test system: hyperacetylated histone H4; experiment: 384 well anti-acetylated histone H4 cytoblot; format: cell-based, human; conditions: A549 cells; 300 nM trichostatin A, 100 nM trapoxin, 24 hours
Procedure: FIG. 5. An immunodetection assay for the accumulation of hyperacetylated histone H4 in high density arrays of mammalian cells. A549 human lung carcinoma cells were seeded at a density of 4000 cells in 40 μL of DMEM+ in each well of an opaque 384 well plate and incubated overnight at 37° C. with 5% CO2. Cells were either untreated, washed once and treated with 0.5% serum, 80 pM TGF-β, 300 nM trichostatin A, 100 nM trapoxin or 250 nM nocodazole and incubated for 24 hours at 37° C. with 5% CO2 in a final volume of 50 μL. A cytoblot was performed (see Protocol) and the presence of the hyperacetylated form of histone H4 was detected using a two step antibody binding procedure using an anti-acetylated H4 antibody and a secondary antibody conjugated to the enzyme horseradish peroxidase. Wells are shown magnified 25×.
Any post-translational modification that can be recognized by an antibody (or ligand) may be used in a cytoblot screen. […] In addition, antibodies against the phosphorylated form of nucleolin (FIG. 6a) or histone H3 (FIG. 6b) were used to detect the presence of phosphonucleolin or phosphohistone H3 respectively, both of which server as biochemical markers of the mitotic state of cells (Anderson et al. Experimental Cell Research 238: 498-502 1998; Vincent et al. J. Cell. Biol. 132:413-425. 1996)). The following protocol provides experimental detail. […]

[5] = test system: mink lung epithelial cells; experiment: BrdU cytoblot assay for S-phase progression; format: cell-based
Text: BRDU CYTOBLOT ASSAY: The BrdU cytoblot assay for S-phase progression was described previously by Stockwell et al. (Chem. Biol. 6:71, 1999; see also, U.S. Patent Application Ser. No. 60/094,305, incorporated herein by reference).
Compounds that mimic TGFβ activity would be expected to be capable of inducing cell cycle arrest or apoptosis, and in particular to block DNA replication, in responding cells. We therefore used an S-phase progression cytoblot assay to test whether our compounds could inhibit 5-bromodeoxyuridine (BrdU) incorporation into mink epithelial cells. […] Both compounds were therefore classified as true TGFβ mimics.

Nc1ncc2[nH]cnc2n1 [2-aminopurine]
suppression of ICRF-193-induced G2 arrest ([1]; 1 mM 2-aminopurine or 2 mM caffeine with ICRF-193 and 250 nM nocodazole, 18 hours): prevented the arrest in response to ICRF-193; also recorded: suppress a DNA damage-independent topoisomerase inhibitor-induced G2-checkpoint arrest

COC(=O)Nc1nc2ccc(C(=O)c3cccs3)cc2[nH]1 [nocodazole]
BrdU incorporation [2]: effectively prevent BrdU incorporation
accumulation of phosphonucleolin ([3]; HeLa cells, nocodazole 415 nM): induces the accumulation of phosphonucleolin
incorporation of BrdU ([3]; HeLa cells, nocodazole 415 nM): prevents the incorporation of BrdU
mitotic arrest (phosphonucleolin) ([1]; 250 nM nocodazole, 18 hours): arrested in mitosis

CC[C@H](CO)Nc1nc(NCc2ccccc2)c2ncn(C(C)C)c2n1 [roscovitine]
exit from nocodazole-induced arrest (disappearance of phosphonucleolin) ([3]; nocodazole 14 hours, then roscovitine): cells exited from the nocodazole-induced arrest; also recorded: suppresses only the accumulation of phosphonucleolin
BrdU incorporation after roscovitine ([3]; nocodazole 14 hours, then roscovitine, 10 μM BrdU 6 hours): did not begin to incorporate BrdU
prevention of nocodazole mitotic arrest [1]: prevented this mitotic arrest

O=C(CCCCC[C@@H]1NC(=O)[C@H]2CCCCN2C(=O)[C@H](Cc2ccccc2)NC(=O)[C@H](Cc2ccccc2)NC1=O)C1CO1 (stereo partly shown) [trapoxin, trapoxin A] (HELM PEPTIDE1{F.F.[O=C([C@H]1CCCCN1[*:1])[*:2]].[O=C(CCCCC[C@H](N[*:1])C(=O)[*:2])C1CO1]}$PEPTIDE1,PEPTIDE1,1:R1-4:R2$$$V2.0)
BrdU incorporation [2]: effectively prevent BrdU incorporation
acetylation of histone H4 [4]: increase in the acetylation of histone H4

CC(/C=C/C(=O)NO)=C\[C@@H](C)C(=O)c1ccc(N(C)C)cc1 [trichostatin, trichostatin A]
acetylation of histone H4 [4]: increase in the acetylation of histone H4

CuCl2 [Cu^2+]
BrdU incorporation [5]: inhibition of BrdU incorporation

ICRF-193
prevention of nocodazole mitotic arrest [1]: prevented this mitotic arrest
